Measured values from patent publication US12570612B2, “Substituted nitrogen heterocyclic compound and anesthetic effect thereof” (priority 2019, dated 2026).
Entries after “also recorded” stand apart in the source; their conditions may differ. Where two headings read alike, the source gives them in different places.

Key:
H295R cell line [1] = test: Adrenocortical function in vitro test: secretion of cortisol and corticosterone, Group B compounds; assay type: cell-based; conditions: H295R cells; for EC50: Homo sapiens, NCI-H295R, 0.1-10000 nM, HPLC-MS/MS
[2] = test system: circulatory function of rats; conditions: rat, in vivo
Sprague-Dawley rats [3] = test: animal or person; assay type: in vivo; conditions: Rattus norvegicus; LORR, up and down method, tail vein, rats; brackets = 95% confidence limit; read-out: ED50
Description: (§1) Evaluating indicator: The end point of anesthesia: LORR was used as the end point of anesthesia; General anesthesia effect: the disappearance of forepaw righting reflex in rats lasting for 30 seconds is taken as the index of general anesthesia effect; Anesthesia recovery index: the recovery of rat forepaw righting reflex was used as the index of anesthesia recovery.

Sprague-Dawley rats [4] = test: animal or person; assay type: in vivo; conditions: Rattus norvegicus; LORR, up and down method, tail vein, rats; brackets = 95% confidence limit; read-out: ED50; remark: listed apart in the source
Description: as §1, with “the disappearance of forepaw righting reflex (lorr)” for “LORR”

Sprague-Dawley rats [5] = test: Continuous infusion at 2 times the MIR for 1 hour, Group B compounds; assay type: in vivo
Sprague-Dawley rats [6] = assay type: in vivo; conditions: tail vein
H295R cell line [7] = test: Adrenocortical function in vitro test: secretion of cortisol and corticosterone, Group A compounds; assay type: cell-based; conditions: H295 cells; for EC50: Homo sapiens, 0.1-10000 nM, HPLC-MS/MS
[8] = test system: circulatory function of rats; conditions: rat, in vivo; remark: listed apart in the source
Description: First, animal models were established. […] At least one week after surgery, data were recorded.
Finally, the pharmacological effects, adverse reactions, and behavioral manifestations of the rats were observed and recorded
After data acquisition, the test was stopped.

SD rats [9] = test system: SD rats
How it was run: (§2)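 Adult male SD rats (250–350 g) received continuous infusion. Read-outs: time from infusion start to […]; after 1 h infusion, time from stop to return of forepaw turning reflex and to full recovery.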

11β-Hydroxylase = target: T1, 11β-Hydroxylase (Homo sapiens, UniProt P15538); conditions: cited from earlier work
T1 sequence (P15538 25-503): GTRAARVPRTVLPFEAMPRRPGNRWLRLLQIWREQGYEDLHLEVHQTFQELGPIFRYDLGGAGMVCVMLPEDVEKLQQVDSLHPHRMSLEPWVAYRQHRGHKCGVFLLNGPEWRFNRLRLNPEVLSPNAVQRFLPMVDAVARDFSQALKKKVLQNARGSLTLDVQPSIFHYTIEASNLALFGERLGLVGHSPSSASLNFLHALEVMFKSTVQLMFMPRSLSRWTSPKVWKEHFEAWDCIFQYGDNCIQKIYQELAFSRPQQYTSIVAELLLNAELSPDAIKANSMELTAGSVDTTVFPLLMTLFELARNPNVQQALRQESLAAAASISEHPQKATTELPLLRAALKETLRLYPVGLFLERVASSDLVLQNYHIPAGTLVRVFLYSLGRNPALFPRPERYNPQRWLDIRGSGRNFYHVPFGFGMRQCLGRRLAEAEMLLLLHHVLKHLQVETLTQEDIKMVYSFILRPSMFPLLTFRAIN

Sprague-Dawley rats [10] = test: animal or person
Description: (§3) Adult male Sprague-Dawley rats (250-300 g) were selected for the experiment. […] The anesthesia effects of the compounds were assessed in rats using a LORR assay and a period >30 s was considered as an indicator of general anesthesia.

adrenal cortex function [11] = conditions: rat, in vivo
SD rats [12] = test system: SD rats; remark: listed apart in the source
How it was run: as §2

Sprague-Dawley rats [13] = test: animal or person; remark: listed apart in the source
Description: as §3

adrenal cortex function [14] = conditions: rat, in vivo; remark: listed apart in the source
[15] = test system: circulatory function of rats; test: Circulatory function of rats (MAP, HR) by implanted telemetry, Group C compounds; conditions: 2ED50, rats, FIG. 13-16
Description: (§5) First, the animal model was established, and the left ventricular catheter, abdominal aorta catheter and electrocardiogram wire were placed. At least one week after the operation, the signal can be collected to start the test. At the beginning of the experiment, after the placement of the indwelling needle in the tail vein of rats, connect the extension tube, put the rats together with the feeding cage on the signal receiver and start collecting data. […] All compounds or drugs were given at a constant volume of 0.6 ml at a uniform rate of 0.1 ml/s.

Sprague-Dawley rats [16] = test system: Sprague-Dawley rats
Description: Adult male Sprague-Dawley rats with body weight ranging from 250 to 300 gm were selected for continuous infusion test. […] Time to recovery of righting reflex from stopping infusion, and time to fully awake from stopping infusion were recorded.

[17] = test system: circulatory function of rats; test: Circulatory function of rats (MAP, HR) by implanted telemetry, Group D compounds; conditions: 2ED50, rats, FIG. 19-22
Description: as §5
Evaluation indexes: Collect the blood pressure, heart rate and other data of rats during and 15 minutes after administration, and judge the effect of the compound of the invention on the circulatory function of rats with the indexes of mean arterial pressure (MAP) and heart rate (HR).

Sprague-Dawley rats [18] = test: Pharmacological effect and adverse reactions under the equivalent dose (2ED50), Group D compounds; assay type: in vivo
Description: (§4) Evaluation index: onset time: from the completion of drug injection to the disappearance of forepaw righting reflex in rats; Duration of anesthesia: the time from the disappearance of rat forepaw righting reflex to the recovery of rat forepaw righting reflex; Recovery time of anesthesia: the time from the […] to complete recovery;

Sprague-Dawley rats [19] = test: Pharmacological effect and adverse reactions under the equivalent dose (2ED50), Group C compounds; assay type: in vivo
Description: as §4

Sprague-Dawley rats [20] = assay type: in vivo; conditions: tail vein; remark: listed apart in the source
[21] = read-out: EC50 (Corticosterone)
[22] = continuous infusion 2 x MIR 1 hour, rats affected/rats
[23] = after 1 hour continuous infusion at 2 times the MIR, SD rats
[24] = continuous tail vein infusion at 2 times the MIR, SD rats
[25] = 2ED50, tail vein, rats, n=8, unit s
[26] = equivalent dose (2 × ED50), number of rats of n = 8
[27] = equivalent dose (2ED50), number of rats of n = 8

CCOC(=O)c1cncn1C(C)c1ccccc1 (stereo not drawn) [Etomidate, reference compound]
Corticosterone as an indicator to determine the presence of inhibition (H295R cell line [1]): 2
Cortisol as an indicator to determine the presence of inhibition (H295R cell line [1]): 2
EC50 (H295R cell line [1]; [21]): > 10 nM
EC50 (H295R cell line [1]; read-out: EC50 (Cortisol)): > 1 nM
inhibitory effect on the circulatory function (MAP, HR) [2]: almost no inhibitory effect on the circulatory function
ED50 (Sprague-Dawley rats [3]): 0.74 mg/kg
ED50 (Sprague-Dawley rats [4]): 0.74 mg/kg
Recovery time after stopping infusion (Sprague-Dawley rats [5]; after 1 hour continuous infusion at 2 times the MIR, rats): 25 to 30 min
Types and incidence of adverse reactions: Facial muscle twitching (Sprague-Dawley rats [5]; [22]): 4/6
Types and incidence of adverse reactions: Tongue stretching (Sprague-Dawley rats [5]; [22]): Tongue stretching (5/6)
Types and incidence of adverse reactions: Tremor (Sprague-Dawley rats [5]; [22]): Tremor (6/6), Facial
Onset time (Sprague-Dawley rats [5]; continuous tail vein infusion at 2 times the MIR, emulsion, rats): 4 to 5 min
Minimal lethal dose (Sprague-Dawley rats [6]): 13.8 mg/kg
Corticosterone as an indicator to determine the presence of inhibition (H295R cell line [7]): 2
Cortisol as an indicator to determine the presence of inhibition (H295R cell line [7]): 2
EC50 (H295R cell line [7]; [21]): > 10 nM
EC50 (H295R cell line [7]; read-out: EC50 (Cortisol)): > 1 nM
inhibitory effect on the circulatory function (MAP, HR) [8]: almost no inhibitory effect on the circulatory function
After the infusion is stopped: Righting reflex recovery time (SD rats [9]; [23]): 15 to 20 min
Recovery time after stopping infusion (SD rats [9]; [23]): 30 to 40 min
Types and incidence of adverse reactions: Hindlimb rigidity (SD rats [9]; [22]): Hindlimb rigidity(2/6)
Types and incidence of adverse reactions: Myoclonus (SD rats [9]; [22]): 4/6
Types and incidence of adverse reactions: Tongue stretching (SD rats [9]; [22]): Tongue stretching(2/6),
Types and incidence of adverse reactions: Tremor (SD rats [9]; [22]): 6/6
Sedation onset time (SD rats [9]; [24]): <5 min
inhibition of 11β-Hydroxylase (11β-Hydroxylase): can inhibit the key enzymes in the synthesis pathway of adrenocortical hormone
ED50 (Sprague-Dawley rats [10]; Rattus norvegicus, LORR in rats, tail vein, brackets = 95% confidence limit): 0.75 mg/kg
Minimal lethal dose (Sprague-Dawley rats [10]; rats): 12.75 mg/kg
effect on the synthesis of adrenal cortex hormone (serum corticosterone) (adrenal cortex function [11]): obvious inhibitory effect on adrenal cortex function
After the infusion is stopped: Righting reflex recovery time (SD rats [12]; [23]): 15 to 20 min
Recovery time after stopping infusion (SD rats [12]; [23]): 30 to 40 min
Types and incidence of adverse reactions: Hindlimb rigidity (SD rats [12]; [22]): Hindlimb rigidity(2/6)
Types and incidence of adverse reactions: Myoclonus (SD rats [12]; [22]): 4/6
Types and incidence of adverse reactions: Tongue stretching (SD rats [12]; [22]): Tongue stretching(2/6),
Types and incidence of adverse reactions: Tremor (SD rats [12]; [22]): 6/6
Sedation onset time (SD rats [12]; [24]): <5 min
ED50 (Sprague-Dawley rats [13]; Rattus norvegicus): 0.75 mg/kg
Minimal lethal dose (Sprague-Dawley rats [13]; rats): 12.75 mg/kg
effect on the synthesis of adrenal cortex hormone (serum corticosterone) (adrenal cortex function [14]): obvious inhibitory effect on adrenal cortex function
effect on the circulatory function (MAP, HR) [15]: slight inhibitory effect on the circulatory function after administration, but soon rises to near the baseline
Recovery time after stopping infusion (Sprague-Dawley rats [16]; LORR maintained for 1 hour, 2 times the MIR): 25 to 30 min
Onset time (Sprague-Dawley rats [16]; continuous infusion, 2 times the MIR): 4 to 5 min
Types and incidence of adverse reactions (Sprague-Dawley rats [16]; continuous infusion, (animals affected/animals)): Tonguestretching(5/6); also recorded: Tremor(6/6), Facial; also recorded: muscle twitching (4/6)
effect on the circulatory function (MAP, HR) [17]: slight inhibitory effect on the circulatory function after administration, but soon rises to near the baseline
Onset time (Sprague-Dawley rats [18]; [25]): <30 s
Adverse reaction: Convulsions (Sprague-Dawley rats [18]; [26]): 0
Adverse reaction: Cough, broken-winded (Sprague-Dawley rats [18]; [26]): 0
Adverse reaction: Euphoria (Sprague-Dawley rats [18]; [26]): 0
Adverse reaction: Four limbs rigidity (Sprague-Dawley rats [18]; [26]): 2
Adverse reaction: Slower breathing, Tetany convulsion (Sprague-Dawley rats [18]; [26]): 0
Adverse reaction: Systemic stiffness, Convulsions, Opisthotonus (Sprague-Dawley rats [18]; [26]): 0
Adverse reaction: Tongue stretching (Sprague-Dawley rats [18]; [26]): 4
Adverse reaction: Tremor (Sprague-Dawley rats [18]; [26]): 3
Onset time (Sprague-Dawley rats [19]; [25]): <30 s
Adverse reaction: Convulsions (Sprague-Dawley rats [19]; [27]): 0
Adverse reaction: Cough, broken-winded (Sprague-Dawley rats [19]; [27]): 0
Adverse reaction: Euphoria (Sprague-Dawley rats [19]; [27]): 0
Adverse reaction: Slower breathing, Tetany convulsion (Sprague-Dawley rats [19]; [27]): 0
Adverse reaction: Systemic stiffness, Convulsions, Opisthotonus (Sprague-Dawley rats [19]; [27]): 0
Adverse reaction: Tongue stretching (Sprague-Dawley rats [19]; [27]): 4
Adverse reaction: Tremor (Sprague-Dawley rats [19]; [27]): 6
Adverse reaction: the four limbs rigidity (Sprague-Dawley rats [19]; [27]): 0
Minimal lethal dose (Sprague-Dawley rats [20]): 13.8 mg/kg
